Where a name gives a salt, the structure may show the parent alone. Read-outs that look alike come from different tables or passages of the source.
What was measured:
[1] = system: azoxymethane-induced colonic aberrant crypt foci; conditions: cited from earlier work; for formation of colonic aberrant crypt foci: male F344 rats
[2] = system: LPS-induced increase in plasma nitrite/nitrate levels; test: In Vivo Assay, endotoxin-treated rats, plasma nitrite/nitrate; conditions: administered orally
Method: Plasma nitrite/nitrate levels can be determined 5 hours post-treatment.

Human Cartilage = Human Cartilage Explant Assay (nitrite production); format: cell-based; conditions: inhibition of nitrite production, IL-1β-induced explants
Method: Human Cartilage Explant Assay
Bone pieces are rinsed twice with Dulbecco's Phosphate Buffered Saline (GibcoBRL) and once with Dulbecco's Modified Eagles Medium (GibcoBRL) and placed into a petri dish with phenol red free Minimum Essential Medium (MEM) (GibcoBRL). Cartilage was cut into small explants of approximately 15-45 mg in weight and one or two explants per well are placed into either 96 or 48 well culture plates with 200-500 μL of culture media per well. The culture media was either a custom modification of Minimum Essential Medium(Eagle) with Earle's salts (GibcoBRL) prepared without L-Arginine, without L-Glutamine and without phenol red or a custom modification of serumless Neuman and Tytell (GibcoBRL) medium prepared without L-arginine, without insulin, without ascorbic acid, without L-glutamine and without phenol red. Both are supplemented before use with 100 μM L-Arginine (Sigma), 2 mM L-glutamine, 1X HL-1 supplement (BioWihittaker), […] ascorbic acid (Sigma) and 150 pg/ml recombinant human IL-1β (RD Systems) to induce nitric oxide synthase. Compounds are then added in 10 μL aliquots and the explants incubated at 37° C. with 5% CO2 for 18-24 hours. The day old supernatant is then discarded and replaced with fresh culture media containing recombinant human IL-1? and compound and incubated for another 20-24 hours. […] All samples are done in quadruplicate. Unstimulated controls are cultured in media in the absence of recombinant human IL-1β. IC50 values (Table I) are determined from plotting the percent inhibition of nitrite production at six different concentrations of inhibitor.

[3] = Rattus norvegicus, po, read-out: ED50

Compound	IC50 (Human Cartilage; Homo sapiens)	ED50 [2, 3]	other results
N=C(N)SCCc1ccc(CCSC(=N)N)cc1 [PBIT]	–	–	azoxymethane-induced colonic aberrant crypt foci development and iNOS activity ([1]; laboratory rodents): prevented
CC(=N)NC/C(F)=C\CC[C@H](N)C(=O)O [Example A, (2S,5E)-2-amino-6-fluoro-7-[(1-iminoethyl)amino]-5-heptenoic acid, dihydrochloride]	–	–	ED50 ([2]; dihydrochloride): <0.1 mg/kg
CC(=N)NC/C(F)=C\CC[C@](C)(N)C(=O)O.Cl.Cl [Example HH, (2S,5E)-2-amino-2-methyl-6-fluoro-7-[(1-iminoethyl)amino]-5-heptenoic acid, dihydrochloride]	0.4 µM	0.4 mg/kg	–
Cl.N=C1CCCC[C@H](CCCC[C@@H](N)C(=O)O)N1.O.O.O [Example V, (αR,2S)-α-aminohexahydro-7-imino-1H-azepine-2-hexanoic acid, trihydrate hydrochloride]	< 10 µM	< 3 mg/kg	–
Cl.N=C1CCCC[C@@H](CCCC[C@H](N)C(=O)O)N1.O.O.O [Example W, (αS,2R)-α-aminohexahydro-7-imino-1H-azepine-2-hexanoic acid, trihydrate hydrochloride]	> 30 µM	> 10 mg/kg	–
N=C1CCCC[C@H](CCCC[C@H](N)C(=O)O)N1 [Example Z, (αS,2S)-α-aminohexahydro-7-imino-1H-azepine-2-hexanoic acid, trihydrate hydrochloride]	< 10 µM	–	–
CC(=N)NC/C=C\CC[C@](C)(N)C(=O)O.Cl.Cl [Example LL, (2S,5Z)-2-amino-2-methyl-7-[(1-iminoethyl)amino]-5-heptenoic acid, dihydrochloride]	0.8 µM	0.3 mg/kg	–
COC[C@](N)(CSCCNC(C)=N)C(=O)O [Example J, 2-[[[2-[(1-Iminoethyl)amino]ethyl]thio]methyl]-O-methyl-D-serine, dihydrochloride]	–	–	IC50 (Human Cartilage): 8.2 µM
CS(=O)(=O)Nc1ccc([N+](=O)[O-])cc1Oc1ccccc1 [nemisulide]	–	–	formation of colonic aberrant crypt foci [1]: inhibit
N=C1CCCC[C@H](CCCC[C@H](N)C(=O)O)N1 [Example X, (αS,2S)-α-aminohexahydro-7-imino-1H-azepine-2-hexanoic acid, trihydrate hydrochloride]	–	–	IC50 (Human Cartilage): < 10 µM
COc1ccc2cc(CCC(C)=O)ccc2c1 [nabumetone]	–	–	formation of colonic aberrant crypt foci [1]: inhibit

Reference: US7012098B2, “Inhibitors of inducible nitric oxide synthase for chemoprevention and treatment of cancers” (Pharmacia Corporation, priority 2001, dated 2006)
